# Test results as given in patent US8735363B2, “Preparation and application of heparin silver” (priority 2005, dated 2014).
# Assays:
# [1] = tested on: hyperplastic scar wound surface; test: Animal model of hyperplastic scar (excised whole-thickness skin wound); assay type: in vivo, New-Zealand rabbit
# Experimental: The scar tissue was subjected to Masson staining and observed under light microscope, and the thickness of dermis (Da) of wound surface after epithelization and the thickness of dermis (Db) of adjacent normal tissue were measured.
# [2] = tested on: deep second degree scald wound surface; test: Animal model of burn (deep second degree steam scald); assay type: in vivo, Rats
# Experimental: After rats were wounded, samples were taken at intervals of time. The wet weight of wound surface tissue (Ga) and the tissue dry weight (Gb) after baking at 80° C. for 72 hours were measured by weighting method. The water content of wound surface was calculated as W=(Ga−Gb)/Ga×100%, wherein W represented the degree of edema.
substance,measurement,setting,value
heparin silver,"Scar index, 60 days","[1]; 60 days, scar index = (Da−Db)/Db, dermis thickness, Masson staining",2.06 ± 0.83 (n = 6)
same,"Scar index, 180 days","[1]; 180 days, scar index = (Da−Db)/Db, dermis thickness, Masson staining",1.85 ± 0.52 (n = 6)
same,Healing time of wound surface (days),"[1]; rabbit 2 cm×5 cm excision wound, dressing with powder changed once per week, healed = scab less than 5% of wound area",21.4 ± 2.16 (n = 6) days
same,Water content of wound surface (W),"[2]; 8 h after wounding, W=(Ga−Gb)/Ga×100%, degree of edema",80.25 ± 2.78 (n = 6) %
same,Water content of wound surface (W),[2]; 24 h after wounding,70.82 ± 3.56 (n = 6) %
same,Hydroxyproline content of wound surface,"[2]; 1 d after wounding, chloramine T oxidization method",18.55 ± 2.13 (n = 5) ug/mL
same,Hydroxyproline content of wound surface,[2]; 2 d after wounding,20.45 ± 2.12 (n = 5) ug/mL
same,Water content of wound surface (W),[2]; 48 h after wounding,70.16 ± 2.64 (n = 6) %
same,Hydroxyproline content of wound surface,[2]; 3 d after wounding,22.04 ± 1.35 (n = 5) ug/mL
same,Water content of wound surface (W),[2]; 72 h after wounding,68.44 ± 1.32 (n = 5) %
same,Hydroxyproline content of wound surface,[2]; 5 d after wounding,23.27 ± 2.11 (n = 6) ug/mL
same,Water content of wound surface (W),[2]; 5 d after wounding,67.61 ± 2.85 (n = 5) %
same,Hydroxyproline content of wound surface,[2]; 7 d after wounding,23.96 ± 2.54 (n = 6) ug/mL
same,Water content of wound surface (W),[2]; 7 d after wounding,67.52 ± 1.36 (n = 5) %
same,Hydroxyproline content of wound surface,[2]; 10 d after wounding,26.87 ± 2.36 (n = 6) ug/mL
same,Hydroxyproline content of wound surface,[2]; 14 d after wounding,26.91 ± 2.14 (n = 6) ug/mL
same,Hydroxyproline content of wound surface,[2]; 21 d after wounding,24.05 ± 1.74 (n = 7) ug/mL
same,Healing Time (d),"[2]; rat 20% area deep second degree scald, powder dressing 0.5-1 mm changed once per day",21.5 ± 2.2 (n = 8) d
same,effect in the treatment of burns and/or scalds (animal test),[2]; summary statement,"accelerating healing speed, reducing occurrence of infection and inflammation, and improving healing quality of wound surface"
